Data reported in patent US8404706B2, “Opioid and opioid-like compounds and uses thereof” (Jenken Biosciences, Inc., priority 2002, dated 2013).
pKi: −log10 of the molar value.

Legend:
[1] = target: σ1 (Homo sapiens, UniProt Q99720); details: cited from earlier work; for pKi: read-out: Ki (σ1-ligands)
[2] = system: ICR mice injected with LPS; experiment: Survival study after LPS; assay type: in vivo
Method: Survival studies were performed in ICR mice (28-35 g), whose stock originated from the Institute of Cancer Research of National Institute of Health in U.S.A. They were purchased from the National Animal Center (Taipei, R.O.C., Taiwan). LPS [60 mg/kg intraperitoneally (i.p.)] was injected in the presence of vehicle or drugs and survival was monitored every 6 hours until 36 hours, Different groups of animals received vehicle (saline) together with LPS (n=20) or LPS plus compounds (2.5 mg/kg at time 0 and 6 hours after LPS, n=20).
All values in the figures and text are expressed as mean. SEM of n observations, where n represents the number of animals studied. Statistical evaluation was performed by using analysis of variance (ANOVA) followed by a multiple comparison test (Scheffe's test), the IL-10 level and the neutrophil infiltration index which were analyzed by unpaired Student's t test. The chi-square test was used for determining the significant differences in the survival rate between control and drug-treated groups. A P value of less than 0.05 was considered to be statistically significant.

[3] = system: nitrate (an indicator of NO); experiment: Plasma nitrate in LPS-treated rats; assay type: in vivo, Wistar-Kyoto (WKY) rats; details: 5 mg/Kg iv 30 min before LPS (10 mg/Kg iv); 6 h after LPS
Method: Wistar-Kyoto (WKY) rats were anesthetized by intraperitoneal injection of urethane (1.2 g/kg). The trachea was cannulated to facilitate respiration and environmental temperature was maintained at 24° C. with an air-conditioning system. […] The left jugular vein was cannulated for the administration of drugs. Upon completion of the surgical procedure, cardiovascular parameters were allowed to stabilize for 30 min. After recording baseline hemodynamic parameters, animals were given norepinephrine [NE, 1 μg/kg intravenously (i.v.)], and 10 min later animals received vehicle (saline) or Escherichia coli lipopolysaccharide (LPS), 5-10 mg/kg, i.v. and were monitored for 360 min. The pressor responses to NE were reassessed every hour after vehicle or LPS injection. […] All hemodynamic and biochemical parameters were recorded for 6 hours in all animal groups.
Fifty microliters of plasma previously kept in −20° C. freezer was thawed and de-proteinized by incubating with 95% ethanol (4° C.) for 30 min. […] The amounts of nitrate in the plasma ([…]) were measured by adding a reducing agent (0-8% VCl3 in 1N HCl) to the purge vessel to convert nitrate to NO, which was stripped from the plasma by using a helium gas purge. […] Nitrate concentrations were calculated by comparison with standard solutions of sodium nitrate (Sigma Chemical Co., St. Louis, Mo.). […]

[4] = system: TNF-α; experiment: Plasma TNF-α (ELISA) in LPS-treated rats; assay type: in vivo, Wistar-Kyoto (WKY) rats; details: 5 mg/Kg iv 30 min before LPS (10 mg/Kg iv); measurement taken at 2 h
Method: (§1) Wistar-Kyoto (WKY) rats were anesthetized by intraperitoneal injection of urethane (1.2 g/kg). The trachea was cannulated to facilitate respiration and environmental temperature was maintained at 24° C. with an air-conditioning system. […] The left jugular vein was cannulated for the administration of drugs. Upon completion of the surgical procedure, cardiovascular parameters were allowed to stabilize for 30 min. After recording baseline hemodynamic parameters, animals were given norepinephrine [NE, 1 μg/kg intravenously (i.v.)], and 10 min later animals received vehicle (saline) or Escherichia coli lipopolysaccharide (LPS), 5-10 mg/kg, i.v. and were monitored for 360 min. The pressor responses to NE were reassessed every hour after vehicle or LPS injection. Prior to (i.e., at time 0) and every hour after vehicle or LPS, 0.5 mL of blood was taken to measure the changes in cytokine tumor necrosis factor-α (TNF-α), interleukin-10β (IL-10), and nitrate (an indicator of NO) (Yen, M. H. et al., Shock 14, 60-67, 2000). Any blood withdrawn was immediately replaced by the injection of an equal volume of saline (i.v.) in order to maintain the blood volume. The drug was administered i.v. 30 min. prior to and 30 min. after the injection of LPS. All hemodynamic and biochemical parameters were recorded for 6 hours in all animal groups.
Blood samples (0.3 mL) for the measurement of TNF-α level in the plasma were obtained at 0, 60, 120, 180, and 360 min. after the injection of saline or LPS. At 60 and 360 min. after the injection of saline or LPS, the volume of blood sample taken from the animals was 0.5 mL instead of 0.3 mL for performing the measurement of IL-10 in addition to TNF-α. These samples were collected from a catheter placed in the carotid artery and were centrifuged at 7200 g for 3 min. to obtain the plasma for measuring the levels of TNF-α, IL-10, and nitrate (as described below). The plasma samples (100 μL) were diluted 1:2, and TNF-α was measured in duplicate with an enzyme-linked immunoadsorbent assay (ELISA) kit (Genzyme Co., Cambridge, Mass.), and the amounts of IL-10 in the plasma (100 μL) were measured by ELISA kit (Endogen Inc., Boston, Mass.), as described previously (Yen, M. H. et al.: Biochem. Biophys. Res. Commun. 228:459-466 (1996)).
Compounds, XXV and XXVI (shown below), were tested according to the foregoing protocols. In the following tables, XXV or XXVI (5 mg/Kg, iv) was injected 30 min before LPS treatment (10 mg/Kg, iv) unless otherwise indicated. In all experiments, at least six rats were tested. All measurements were performed 6 h after LPS injection unless otherwise indicated. […]

[5] = system: Blood urea nitrogen; experiment: Blood urea nitrogen (BUN) in LPS-treated rats; assay type: in vivo; details: 5 mg/Kg iv 30 min before LPS (10 mg/Kg iv); 6 h after LPS
Method: as §1, with “Any blood withdrawn was immediately replaced by the injection of an equal volume of saline (i.v.) in order to maintain the blood volume. The drug was administered i.v. 30 min. prior to and 30 min. after the injection of LPS.” left out
(§2) BUN and Creatinine levels were measured at 0 and 6 hr after injection of saline or LPS by “DRI-Chemical slide” (Fujifilm Co., dropping 10 μL plasma onto the slide with micropipette). […]

[6] = system: Creatinine; experiment: Plasma creatinine in LPS-treated rats; assay type: in vivo; details: 5 mg/Kg iv 30 min before LPS (10 mg/Kg iv); 6 h after LPS
Method: as §1, with “Any blood withdrawn was immediately replaced by the injection of an equal volume of saline (i.v.) in order to maintain the blood volume. The drug was administered i.v. 30 min. prior to and 30 min. after the injection of LPS.” left out
as §2

[7] = system: SGOT; experiment: Serum glutamic oxaloacetic transaminase (SGOT) in LPS-treated rats; assay type: in vivo; details: for SGOT % Inhibition / SGOT, LPS + Compound: 6 h after LPS
Method: as §1
(§3) 10 μl of serum was taken out at 0 and 6 hr intervals and were added to slides of GOP and GTP and then placed in DRI-CHEM 3000 (Colorige Tric Analyzer; FUJIFILM; Tokyo, Japan.
(§4) Compounds, XXV and XXVI (shown below), were tested according to the foregoing protocols. In the following tables, XXV or XXVI (5 mg/Kg, iv) was injected 30 min before LPS treatment (10 mg/Kg, iv) unless otherwise indicated. In all experiments, at least six rats were tested. All measurements were performed 6 h after LPS injection unless otherwise indicated. The inhibitory effects of the compounds tested were described as a percentage of protection or inhibition with respect to the change in LPS-treated animals as compared to the control animals.

[8] = system: lung tissues of rats receiving lipopolysaccharide (LPS); experiment: Histological study of lung tissue after LPS
Text: Lungs and livers were obtained from surviving mice in each group after the survival study and these tissues were fixed in Carson-Millonig's solution for histopathological examination as described previously in Chen, A. et al. Lab. […] The fixed lung and liver tissues were dehydrated in graded ethanol and embedded in paraffin. Three-micron sections were stained with the hematoxylin and eosin reagent for light microscopy. […] This histological alteration was quantitatively analyzed as an index on the severity of tissue injury. This index was a neutrophil infiltration index which was determined by counting the numbers of neutrophils in 10 randomly selected high power fields. The index was expressed as the mean of these 10 numbers±standard error of the mean (SEM)/high power field.

[9] = system: rats treated with lipopolysaccharide (LPS); experiment: Heart rate in LPS-treated rats; assay type: in vivo, Wistar-Kyoto (WKY) rats; details: 5 mg/Kg iv 30 min before LPS (10 mg/Kg iv); 6 h after LPS
Method: as §1, §4

[10] = system: Superoxide; experiment: Superoxide in LPS-treated rats; assay type: in vivo; details: 6 h after LPS
Method: as §4

[11] = system: SGPT; experiment: Serum glutamic pyrate transaminase (SGPT) in LPS-treated rats; assay type: in vivo; details: for SGPT, LPS + Compound / SGPT % Inhibition: 6 h after LPS
Method: as §1, §3, §4

[12] = system: rats treated with lipopolysaccharide (LPS); experiment: Mean arterial blood pressure (MAP) in LPS-treated rats; assay type: in vivo, Wistar-Kyoto (WKY) rats; details: 5 mg/Kg iv 30 min before LPS (10 mg/Kg iv); 6 h after LPS
Method: as §1, §4

[13] = 5 mg/Kg iv 30 min before LPS (10 mg/Kg iv)
[14] = 5 mg/Kg iv 30 min before LPS (10 mg/Kg iv), XXVI value not statistically significant
[15] = 6 hours after LPS, pretreatment (30 min before LPS; 5, 10 mg/kg) and post-treatment (30 min after LPS; 10 mg/kg), p<0.05

σ1, sequence (Q99720 whole entry): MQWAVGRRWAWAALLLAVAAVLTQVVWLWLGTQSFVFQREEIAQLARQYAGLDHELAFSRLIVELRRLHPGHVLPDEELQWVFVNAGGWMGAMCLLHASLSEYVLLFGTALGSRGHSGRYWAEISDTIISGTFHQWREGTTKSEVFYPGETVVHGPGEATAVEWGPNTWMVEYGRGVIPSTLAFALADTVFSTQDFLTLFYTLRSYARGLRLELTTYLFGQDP

Structure (SMILES): Br.COc1ccc2c(c1)[C@@]13CCCC[C@H]1[C@@H](C2)N(Cc1ccccc1)CC3
- melting point: 185 to 186 °C

Structure (SMILES): Br.COc1ccc2c(c1)[C@@]13CCCC[C@H]1[C@@H](C2)N(Cc1ccc(F)cc1)CC3
- melting point: 226 to 228 °C

Structure (SMILES): C=CCCCCN1CCC2(C)c3cc(O)ccc3CC1C2C (stereo not shown) [N-hex-5-enyl]
- pKi [1]: 9.00
- σ2/σ1 ([1]; selectivity ratio): 750

Structure (SMILES): COc1ccc2c(c1)[C@]13CCCCC1[C@H](C2)N(C)CC3 (stereo partly shown) [XXVI]
- % of Protection (survival at 14 h) ([2]; 14 h after LPS): 100%
- % of Survival at 14 h, LPS + Compound ([2]; 14 h after LPS, method: LPS 60 mg/kg i.p., compound 2.5 mg/kg at 0 and 6 h): 100%
- % of Protection (survival at 18 h) ([2]; 18 h after LPS): 40%
- % of Survival at 18 h, LPS + Compound ([2]; 18 h after LPS, method: LPS 60 mg/kg i.p., compound 2.5 mg/kg at 0 and 6 h): 40%
- Nitrate % Inhibition [3]: 75%
- Nitrate, LPS + Compound [3]: 75 µM
- TNF-α % Inhibition [4]: 74%
- TNF-α, LPS + Compound [4]: 510 ng/mL
- Blood urine nitrogen % of Inhibition [5]: 47%
- Blood urine nitrogen, LPS + Compound [5]: 45 mg/dL
- Creatinine % of Inhibition [6]: 60%
- Creatinine, LPS + Compound [6]: 0.40 mg/dL
- SGOT % Inhibition [7, 13]: 53%
- SGOT, LPS + Compound [7, 13]: 158 U/L
- Lung tissue morphology after compound alone ([8]; injections of compound alone, no LPS, n=2, FIG. 5 (400×) and FIG. 6 (40×)): morphologically relatively normal lung tissues
- PMN infiltration in lung caused by LPS ([8]; pretreatment with compound, high power (400×) light microscope, FIG. 5): improved
- Thickness of alveolar wall with interstitial congestion and edema caused by LPS ([8]; pretreatment with compound, low power (40×) light microscope, FIG. 6): improved
- Heart Rate % Protection [9]: 36%
- Heart Rate, LPS + Compound [9]: 420 beats/min
- Superoxide % Inhibition [10, 13]: 68%
- Superoxide, LPS + Compound [10, 13]: 8200 relative units
- SGPT, LPS + Compound [11, 13]: 36 U/L
- SGPT % Inhibition [11, 14]: 100^3%
- MAP % Protection [12]: 100%
- MAP, LPS + Compound [12]: 105 mmHg

Structure (SMILES): O=C1CC[C@@]2(O)[C@@H]3Cc4ccc(O)c5c4C2(CCN3CC2CC2)[C@H]1O5 [XXV]
- TNF-α % Inhibition [4]: 50%
- TNF-α, LPS + Compound [4]: 180 ng/mL
- SGOT % Inhibition [7, 13]: 60%
- SGOT, LPS + Compound [7, 13]: 192 U/L
- Effect on SGOT after LPS [7, 15]: significant decrease
- SGOT % Inhibition ([7]; Post-treatment with 10 mg/Kg): 76%
- SGOT, LPS + Compound ([7]; Post-treatment with 10 mg/Kg): 192 U/L
- SGOT % Inhibition ([7]; Pretreatment with 10 mg/Kg): 94%
- SGOT, LPS + Compound ([7]; Pretreatment with 10 mg/Kg): 192 U/L
- Heart Rate % Protection [9]: >90%
- Heart Rate, LPS + Compound [9]: 410 beats/min
- Superoxide % Inhibition ([10]; Post-treatment with 10 mg/Kg): 69%
- Superoxide, LPS + Compound ([10]; Post-treatment with 10 mg/Kg): 15720 relative units
- Superoxide % Inhibition ([10]; Pretreatment with 10 mg/Kg): 85%
- Superoxide, LPS + Compound ([10]; Pretreatment with 10 mg/Kg): 11866 relative units
- SGPT, LPS + Compound [11, 13]: 61.6 U/L
- SGPT % Inhibition [11, 14]: 78%
- Effect on SGTP after LPS [11, 15]: significant decrease
- SGPT % Inhibition ([11]; Post-treatment with 10 mg/Kg): 82%
- SGPT, LPS + Compound ([11]; Post-treatment with 10 mg/Kg): 59.6 U/L
- SGPT % Inhibition ([11]; Pretreatment with 10 mg/Kg): 94%
- SGPT, LPS + Compound ([11]; Pretreatment with 10 mg/Kg): 53.8 U/L
- MAP % Protection [12]: 33%
- MAP, LPS + Compound [12]: 80 mmHg

Structure (SMILES): C=CCN1CCC2(C)c3cc(O)ccc3CC1C2C (stereo not shown) [N-allylnormetazocine]
- affinity at σ1 [1]: relatively poor affinity
- σ1/σ2 ratio ([1]; selectivity ratio): < 100

Structure (SMILES): Br.C=CCN1CC[C@]23CCCC[C@H]2[C@H]1Cc1ccc(OC)cc13
- melting point: 190 to 192 °C

Structure (SMILES): C=CCCCN1CCC2(C)c3cc(O)ccc3CC1C2C (stereo not shown) [N-pent-4-enyl]
- pKi [1]: 8.70
- σ2/σ1 ([1]; selectivity ratio): 1250
